Measurements from ChEMBL document CHEMBL6115036, “Exploration of membrane-active cephalosporin derivatives as potent antibacterial agents against Staphylococcus aureus biofilms and persisters” (Eur J Med Chem, 2025).
The source made the active and inactive calls. The rule behind the calls is not given here.

Experiments:
Staphylococcus aureus [1] = assay: Antibacterial activity against Staphylococcus aureus infected in Kunming mouse model of subcutaneous abscess assessed as surviving bacteria in skin tissue at 10 mg/kg, sc measured after 48 hrs relative to control; assay type: functional
Staphylococcus aureus [2] = assay: Antibacterial activity against Staphylococcus aureus infected in Kunming mouse model of subcutaneous abscess assessed as reduction in bacterial load in skin tissue at 10 mg/kg, sc measured after 48 hrs relative to control; assay type: functional; parameters: scale not given: the % may be the effect or the level left
Staphylococcus aureus [3] = assay: Antibacterial activity against Staphylococcus aureus infected in Kunming mouse model of subcutaneous abscess assessed as reduction in number of bacteria in skin tissue at 5 to 10 mg/kg, sc measured after 48 hrs; assay type: functional, organism-based; conditions: dose 5-10 mg/kg
Staphylococcus aureus [4] = assay: Inhibition of biofilm formation in Staphylococcus aureus assessed as reduction in number of live bacterial count at 16 times MIC incubated for 24 hrs; assay type: functional
Enterococcus faecalis = assay: Antimicrobial activity against Enterococcus faecalis incubated for 16 to 18 hrs by broth dilution assay; assay type: functional; conditions: time 16-18 hrs
Staphylococcus aureus [5] = assay: Antimicrobial activity against Staphylococcus aureus incubated for 16 to 18 hrs by broth dilution assay; assay type: functional; conditions: time 16-18 hrs
[6] = system: Stenotrophomonas maltophilia; assay: Antimicrobial activity against Stenotrophomonas maltophilia incubated for 16 to 18 hrs by broth dilution assay; assay type: functional; conditions: time 16-18 hrs
Escherichia coli = assay: Antimicrobial activity against Escherichia coli incubated for 16 to 18 hrs by broth dilution assay; assay type: functional; conditions: time 16-18 hrs
[7] = Hemolytic activity in sheep red blood cells incubated for 1 hr; assay type: toxicity, cell-based, Ovis aries, Erythrocyte
Staphylococcus aureus [8] = assay: Disruption of cell membrane in Staphylococcus aureus assessed as nucleic acid leakage at 32 ug/ml measured after 2 hrs by fluorescence based analysis; assay type: functional, organism-based; conditions: dose 32.0 µg/ml
Staphylococcus aureus [9] = assay: Disruption of cell membrane in Staphylococcus aureus assessed as protein leakage at 32 ug/ml measured after 2 hrs by fluorescence based analysis; assay type: functional, organism-based; conditions: dose 32.0 µg/ml
Staphylococcus aureus [10] = assay: Bactericidal activity against Staphylococcus aureus assessed as reduction in bacterial colony count at 4 to 8 times MIC incubated for 8 hrs by time kill assay; assay type: functional, organism-based
Staphylococcus aureus [11] = assay: Antibacterial activity against Staphylococcus aureus in presence of 50% sheep plasma; assay type: functional, organism-based
Staphylococcus aureus [12] = assay: Antibacterial activity against Staphylococcus aureus in presence of 50% FBS; assay type: functional, organism-based
Staphylococcus aureus [13] = assay: Bactericidal activity against Staphylococcus aureus measured for 3 to 6 hrs in presence of 50% sheep plasma; assay type: functional, organism-based; conditions: time 3-6 hrs
Staphylococcus aureus [14] = assay: Induction of resistance development in Staphylococcus aureus at sub-MIC measured after 20 passages; assay type: functional, organism-based
Staphylococcus aureus [15] = assay: Induction of resistance development in drug-resistant Staphylococcus aureus assessed as fold increase in MIC of levofloxacin at sub-MIC measured after 20 passages relative to control; assay type: functional
Staphylococcus aureus [16] = assay: Induction of resistance development in drug-resistant Staphylococcus aureus at sub-MIC measured after 20 passages in presence of norfloxacin; assay type: functional, organism-based
Staphylococcus aureus [17] = assay: Induction of resistance development in drug-resistant Staphylococcus aureus at sub-MIC measured after 20 passages in presence of ciprofloxacin; assay type: functional, organism-based
Staphylococcus aureus [18] = assay: Induction of resistance development in drug-resistant Staphylococcus aureus at sub-MIC measured after 20 passages in presence of levofloxacin; assay type: functional, organism-based
Staphylococcus aureus [19] = assay: Induction of resistance development in drug-resistant Staphylococcus aureus at sub-MIC measured after 20 passages in presence of linezolid; assay type: functional, organism-based
Staphylococcus aureus [20] = assay: Induction of resistance development in drug-resistant Staphylococcus aureus at sub-MIC measured after 20 passages in presence of rifampicin; assay type: functional, organism-based
Staphylococcus aureus [21] = assay: Induction of resistance development in drug-resistant Staphylococcus aureus at sub-MIC measured after 20 passages in presence of vancomycin; assay type: functional, organism-based
Staphylococcus aureus [22] = assay: Induction of resistance development in drug-resistant Staphylococcus aureus at sub-MIC measured after 20 passages in presence of cefuroxime sodium; assay type: functional, organism-based
Staphylococcus aureus [23] = assay: Induction of resistance development in drug-resistant Staphylococcus aureus at sub-MIC measured after 20 passages in presence of ampicillin sodium; assay type: functional, organism-based
Staphylococcus aureus [24] = assay: Inhibition of metabolic activity in Staphylococcus aureus incubated for 6 hrs by Alamar blue assay; assay type: functional, organism-based
Staphylococcus aureus [25] = assay: Induction of intracellular ROS accumulation in Staphylococcus aureus at 1 to 4 times MIC incubated overnight by DCFH-DA dye based analysis; assay type: functional, organism-based
Staphylococcus aureus [26] = assay: Antibacterial activity against Staphylococcus aureus assessed as effect on quiescent cells at 100 to 200 times MIC incubated for 24 hrs; assay type: functional, organism-based
Staphylococcus aureus [27] = assay: Antibacterial activity against rifampicin-induced persistant Staphylococcus aureus assessed as decrease in CFU at 200 times MIC measured for 10 hrs; assay type: functional, organism-based
Staphylococcus aureus [28] = assay: Inhibition of biofilm formation in Staphylococcus aureus assessed as decrease in bacterial count at 32 times MIC incubated for 24 hrs by CLSM analysis; assay type: functional, organism-based
[29] = Cytotoxicity against human HeLa cells incubated for 24 hrs by CCK8 assay; assay type: toxicity, cell-based
[30] = Cytotoxicity against HUVEC cells incubated for 24 hrs by CCK8 assay; assay type: toxicity, cell-based; conditions: human
Staphylococcus aureus [31] = assay: Antibacterial activity against Staphylococcus aureus infected in Kunming mouse model of subcutaneous abscess assessed as decrease in neutrophil level in skin tissue at 5 mg/kg, sc measured after 48 hrs by H and E staining based analysis; assay type: functional, organism-based
Staphylococcus aureus [32] = assay: Antibacterial activity against Staphylococcus aureus infected in Kunming mouse model of subcutaneous abscess assessed as decrease in inflammation in skin tissue at 5 mg/kg, sc measured after 48 hrs by H and E staining based analysis; assay type: functional, organism-based
Staphylococcus aureus [33] = assay: Antibacterial activity against Staphylococcus aureus infected in Kunming mouse model of subcutaneous abscess assessed as decrease in inflammatory cell infiltration in skin tissue at 10 mg/kg, sc measured after 48 hrs by H and E staining based analysis; assay type: functional, organism-based
[34] = Toxicity in Kunming mouse model of subcutaneous abscess infected with Staphylococcus aureus assessed as damage in heart at 5 to 10 mg/kg, sc measured after 48 hrs by H and E staining based analysis; assay type: organism-based; conditions: in vivo, dose 5-10 mg/kg
[35] = Toxicity in Kunming mouse model of subcutaneous abscess infected with Staphylococcus aureus assessed as damage in liver at 5 to 10 mg/kg, sc measured after 48 hrs by H and E staining based analysis; assay type: organism-based; conditions: in vivo, dose 5-10 mg/kg
[36] = Toxicity in Kunming mouse model of subcutaneous abscess infected with Staphylococcus aureus assessed as damage in spleen at 5 to 10 mg/kg, sc measured after 48 hrs by H and E staining based analysis; assay type: organism-based; conditions: in vivo, dose 5-10 mg/kg
[37] = Toxicity in Kunming mouse model of subcutaneous abscess infected with Staphylococcus aureus assessed as damage in lung at 5 to 10 mg/kg, sc measured after 48 hrs by H and E staining based analysis; assay type: organism-based; conditions: in vivo, dose 5-10 mg/kg
[38] = Toxicity in Kunming mouse model of subcutaneous abscess infected with Staphylococcus aureus assessed as damage in kidney at 5 to 10 mg/kg, sc measured after 48 hrs by H and E staining based analysis; assay type: organism-based; conditions: in vivo, dose 5-10 mg/kg
[39] = Toxicity in Kunming mouse model of subcutaneous abscess infected with Staphylococcus aureus assessed as histopathological abnormalities in heart at 5 to 10 mg/kg, sc measured after 48 hrs by H and E staining based analysis; assay type: organism-based; conditions: in vivo, dose 5-10 mg/kg
[40] = Toxicity in Kunming mouse model of subcutaneous abscess infected with Staphylococcus aureus assessed as histopathological abnormalities in liver at 5 to 10 mg/kg, sc measured after 48 hrs by H and E staining based analysis; assay type: organism-based; conditions: in vivo, dose 5-10 mg/kg
[41] = Toxicity in Kunming mouse model of subcutaneous abscess infected with Staphylococcus aureus assessed as histopathological abnormalities in spleen at 5 to 10 mg/kg, sc measured after 48 hrs by H and E staining based analysis; assay type: organism-based; conditions: in vivo, dose 5-10 mg/kg
[42] = Toxicity in Kunming mouse model of subcutaneous abscess infected with Staphylococcus aureus assessed as histopathological abnormalities in lung at 5 to 10 mg/kg, sc measured after 48 hrs by H and E staining based analysis; assay type: organism-based; conditions: in vivo, dose 5-10 mg/kg
[43] = Toxicity in Kunming mouse model of subcutaneous abscess infected with Staphylococcus aureus assessed as histopathological abnormalities in kidney at 5 to 10 mg/kg, sc measured after 48 hrs by H and E staining based analysis; assay type: organism-based; conditions: in vivo, dose 5-10 mg/kg

CCCCCCCCCC[n+]1ccc(-c2cc[n+](CC3=C(C(=O)[O-])N4C(=O)[C@@H](NC(=O)Cc5ccccc5)[C@H]4SC3)cc2)cc1.O=C([O-])C(F)(F)F
Activity (Staphylococcus aureus [1]): 0.02% | Activity (Staphylococcus aureus [2]): 99.98% | Activity (Staphylococcus aureus [3]): Active | Activity (Staphylococcus aureus [4]): ~1 10^3CFU/ml | MIC (Enterococcus faecalis): 4 µg/mL | MIC (Staphylococcus aureus [5]): 0.063 µg/mL | MIC [6]: 128 µg/mL | MIC (Escherichia coli): 128 µg/mL | HC50 at 1 h [7]: > 1280 µg/mL | Activity (Staphylococcus aureus [8]): inactive | Activity (Staphylococcus aureus [9]): inactive | Activity (Staphylococcus aureus [10]): Active | Activity (Staphylococcus aureus [11]): Active; Mic Value Of Compound In Plasma Was Equal To Mic In Mhb Medium | Activity (Staphylococcus aureus [12]): Active; Mic Value Of Compound In Serum Was Equal To Mic In Mhb Medium | Activity (Staphylococcus aureus [13]): Active | Activity (Staphylococcus aureus [14]): inactive | fold change (FC) (Staphylococcus aureus [15]): 8 | Activity (Staphylococcus aureus [16]): inactive | Activity (Staphylococcus aureus [17]): inactive | Activity (Staphylococcus aureus [18]): inactive | Activity (Staphylococcus aureus [19]): inactive | Activity (Staphylococcus aureus [20]): inactive | Activity (Staphylococcus aureus [21]): inactive | Activity (Staphylococcus aureus [22]): inactive | Activity (Staphylococcus aureus [23]): inactive | inhibition (Staphylococcus aureus [24]): Dose-dependent-effect | Activity (Staphylococcus aureus [25]): inactive | Activity (Staphylococcus aureus [26]): inactive | Activity (Staphylococcus aureus [27]): inactive | inhibition (Staphylococcus aureus [28]): inactive | CC50 at 24 h [29]: 26.9 µg/mL | CC50 at 24 h [30]: > 64 µg/mL | Activity (Staphylococcus aureus [31]): Active | Activity (Staphylococcus aureus [32]): Active | Activity (Staphylococcus aureus [33]): Active; Compound Activity On Skin Was Similar To Healthy Mouse | Activity [34]: Non-toxic | Activity [35]: Non-toxic | Activity [36]: Non-toxic | Activity [37]: Non-toxic | Activity [38]: Non-toxic | Activity [39]: Non-toxic | Activity [40]: Non-toxic | Activity [41]: Non-toxic | Activity [42]: Non-toxic | Activity [43]: Non-toxic
